Measured values from PubChem BioAssay AID248 (DTP/NCI, 2004).
Toxic doses and inconclusive results are not listed. Cut-off read from the data, not from the text of the source: active = T/C of 150% or more; inactive = T/C below 125%.

System: L1210 leukemia ip in BDF1 mice, survival T/C
Assay: NCI In Vivo Anticancer Drug Screen. Data for tumor model L1210 Leukemia (intraperitoneal) in B6D2F1 (BDF1) mice
Settings: endpoint: mean survival time, higher = longer survival
How it was run: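 Transplanted-tumor mice were given test agent; controls received vehicle only. Survival readings from the two groups were divided (treated over control).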

[1] = dose: 100.0 mg/kg/injection, schedule: Q01DX009 (ip), vehicle: Klucel (hydroxypropylcellulose) (HPC)
[2] = dose: 200.0 mg/kg/injection, schedule: Q01DX009 (ip), vehicle: Klucel (hydroxypropylcellulose) (HPC)
[3] = dose: 100.0 mg/kg/injection, schedule: Q01DX001 (ip), vehicle: saline
[4] = dose: 200.0 mg/kg/injection, schedule: Q01DX001 (ip), vehicle: saline
[5] = dose: 400.0 mg/kg/injection, schedule: Q01DX001 (ip), vehicle: saline
[6] = dose: 100.0 mg/kg/injection, schedule: Q04DX003 (ip), vehicle: Klucel (hydroxypropylcellulose) (HPC)
[7] = dose: 200.0 mg/kg/injection, schedule: Q04DX003 (ip), vehicle: Klucel (hydroxypropylcellulose) (HPC)
[8] = dose: 400.0 mg/kg/injection, schedule: Q04DX003 (ip), vehicle: Klucel (hydroxypropylcellulose) (HPC)
[9] = dose: 100.0 mg/kg/injection, schedule: Q04DX003 (ip), vehicle: saline
[10] = dose: 200.0 mg/kg/injection, schedule: Q04DX003 (ip), vehicle: saline
[11] = dose: 400.0 mg/kg/injection, schedule: Q04DX003 (ip), vehicle: saline
[12] = dose: 100.0 mg/kg/injection, schedule: Q04DX003 (ip), vehicle: saline with Tween-80
[13] = dose: 200.0 mg/kg/injection, schedule: Q04DX003 (ip), vehicle: saline with Tween-80
[14] = dose: 400.0 mg/kg/injection, schedule: Q04DX003 (ip), vehicle: saline with Tween-80
[15] = dose: 100.0 mg/kg/injection, schedule: Q01DX009 (ip), vehicle: saline
[16] = dose: 200.0 mg/kg/injection, schedule: Q01DX009 (ip), vehicle: saline
[17] = dose: 400.0 mg/kg/injection, schedule: Q01DX009 (ip), vehicle: saline

Measured: T/C

O=C(c1ccccc1)c1ccccc1
inactive: dose: 50.0 mg/kg/injection, schedule: Q01DX009 (ip), vehicle: Klucel (hydroxypropylcellulose) (HPC) 96 % of control | dose: 75.0 mg/kg/injection, schedule: Q04DX003 (ip), vehicle: saline 100 % of control | [1] 101 % of control | dose: 150.0 mg/kg/injection, schedule: Q04DX003 (ip), vehicle: saline 100 % of control | [2] 97 % of control | dose: 300.0 mg/kg/injection, schedule: Q04DX003 (ip), vehicle: saline 104 % of control

c1ccc2cc(C3OCC4(CCCC4)CO3)ccc2c1
inactive: dose: 100.0 mg/kg/injection, schedule: Q04DX002 (ip), vehicle: Klucel (hydroxypropylcellulose) (HPC) 103 % of control | dose: 200.0 mg/kg/injection, schedule: Q04DX002 (ip), vehicle: Klucel (hydroxypropylcellulose) (HPC) 95 % of control | dose: 400.0 mg/kg/injection, schedule: Q04DX002 (ip), vehicle: Klucel (hydroxypropylcellulose) (HPC) 103 % of control

Nc1cc2c(c(Cl)c1Br)-c1ccccc1C2=O
inactive: [3] 96 % of control | [4] 90 % of control | [5] 94 % of control

O=c1ccc2cc(Br)ccc2o1
inactive: [6] 97 % of control | [7] 95 % of control | [8] 97 % of control

COC(=O)Cc1ccc([N+](=O)[O-])cc1[N+](=O)[O-]
inactive: [9] 101 % of control | [10] 102 % of control | [11] 93 % of control

O=[N+]([O-])c1ccc(N2CCCC2)nc1
inactive: dose: 100.0 mg/kg/injection, schedule: Q01DX001 (ip), vehicle: saline with Tween-80 107 % of control | dose: 200.0 mg/kg/injection, schedule: Q01DX001 (ip), vehicle: saline with Tween-80 93 % of control | dose: 400.0 mg/kg/injection, schedule: Q01DX001 (ip), vehicle: saline with Tween-80 100 % of control

NNC(=O)CCCO
inactive: [12] 103 % of control | [13] 98 % of control | [14] 101 % of control

OC1OC(CCl)C(Cl)C(O)C1O (stereo not given)
inactive: [9] 106 % of control | [10] 101 % of control | [11] 98 % of control

NCc1c(Cl)c(Cl)c(CN)c(Cl)c1Cl
inactive: dose: 50.0 mg/kg/injection, schedule: Q01DX009 (ip), vehicle: saline with Tween-80 96 % of control | dose: 50.0 mg/kg/injection, schedule: Q04DX003 (ip), vehicle: saline with Tween-80 92 % of control | dose: 100.0 mg/kg/injection, schedule: Q01DX009 (ip), vehicle: saline with Tween-80 94 % of control | [12] 92 % of control | dose: 200.0 mg/kg/injection, schedule: Q01DX009 (ip), vehicle: saline with Tween-80 88 % of control | [13] 105 % of control

CCN(CC)CCn1c2ccccc2c2cc3cnccc3c(C)c21
inactive: dose: 18.75 mg/kg/injection, schedule: Q01DX009 (ip), vehicle: saline 109 % of control | dose: 37.5 mg/kg/injection, schedule: Q01DX009 (ip), vehicle: saline 109 % of control | dose: 37.5 mg/kg/injection, schedule: Q04DX003 (ip), vehicle: Klucel (hydroxypropylcellulose) (HPC) 106 % of control | dose: 75.0 mg/kg/injection, schedule: Q01DX009 (ip), vehicle: saline 114 % of control | dose: 75.0 mg/kg/injection, schedule: Q04DX003 (ip), vehicle: Klucel (hydroxypropylcellulose) (HPC) 105 % of control | dose: 150.0 mg/kg/injection, schedule: Q01DX009 (ip), vehicle: saline 89 % of control | dose: 150.0 mg/kg/injection, schedule: Q04DX003 (ip), vehicle: Klucel (hydroxypropylcellulose) (HPC) 87 % of control

Nc1ccn(C2SC(CO)C(O)C2O)c(=O)n1 (stereo not given)
inactive: dose: 50.0 mg/kg/injection, schedule: Q01DX001 (ip), vehicle: saline 100 % of control | [3] 105 % of control | [4] 100 % of control | [5] 92 % of control

CCOC(=O)c1csc(CCNC(=O)c2ccccc2)n1
inactive: [3] 99 % of control | [15] 108 % of control | [9] 96 % of control | [4] 102 % of control | [16] 97 % of control | [10] 98 % of control | [5] 96 % of control | [17] 100 % of control | [11] 95 % of control

Cc1ccccc1C(=O)c1ccccc1C(=O)c1ccccc1
inactive: dose: 50.0 mg/kg/injection, schedule: Q01DX001 (ip), vehicle: carboxymethylcellulose (CMC) 98 % of control | dose: 100.0 mg/kg/injection, schedule: Q01DX001 (ip), vehicle: carboxymethylcellulose (CMC) 88 % of control | [15] 97 % of control | dose: 200.0 mg/kg/injection, schedule: Q01DX001 (ip), vehicle: carboxymethylcellulose (CMC) 93 % of control | [16] 95 % of control | dose: 400.0 mg/kg/injection, schedule: Q01DX001 (ip), vehicle: carboxymethylcellulose (CMC) 101 % of control | [17] 97 % of control

CCOC(=O)c1cnc(SC)nc1Nc1ccccc1C
inactive: [1] 96 % of control | [6] 97 % of control | [2] 93 % of control | [7] 98 % of control | dose: 400.0 mg/kg/injection, schedule: Q01DX009 (ip), vehicle: Klucel (hydroxypropylcellulose) (HPC) 91 % of control | [8] 98 % of control

Cn1c(=O)c2ccccc2c2cc(Cl)ccc21
inactive: [1] 94 % of control | [6] 96 % of control | [7] 96 % of control | [8] 93 % of control

CC1CC(=O)NN1C(=S)Nc1ccccc1 (stereo not given)
inactive: [12] 102 % of control | [13] 98 % of control | [14] 100 % of control

CCOC(=O)C[n+]1ccccc1Br
inactive: dose: 50.0 mg/kg/injection, schedule: Q01DX015 (ip), vehicle: water 90 % of control | dose: 100.0 mg/kg/injection, schedule: Q01DX015 (ip), vehicle: water 100 % of control

S=C(N/N=C/c1ccc2c(c1)OCO2)Nc1cccc2cccnc12
inactive: [3] 105 % of control | [4] 88 % of control | [5] 96 % of control

CS(=O)(=O)NCCOc1ccc(C(=O)O)cc1
inactive: [6] 96 % of control | [7] 101 % of control | [8] 95 % of control

Cc1[nH]nc(C(=O)N(C)C)c1N=NN(C)C
inactive: dose: 75.0 mg/kg/injection, schedule: Q01DX001 (ip), vehicle: saline 116 % of control

CCN(CC)c1ccc(N=C2C=C(C(=O)Nc3ccccc3OC)C(=O)c3ccccc32)c(C)c1
inactive: [3] 102 % of control | [4] 105 % of control | [5] 96 % of control

COc1ccc(OC)c2c(C)cc(=O)[nH]c12
inactive: [3] 97 % of control | [4] 98 % of control

CC(=O)/C(C)=N/Nc1ccccc1
inactive: [12] 101 % of control | [13] 106 % of control | [14] 106 % of control

C=CC[n+]1ccccc1C(c1ccccc1)c1ccccc1
inactive: dose: 6.25 mg/kg/injection, schedule: Q01DX009 (ip), vehicle: saline with Tween-80 108 % of control | dose: 12.5 mg/kg/injection, schedule: Q01DX009 (ip), vehicle: saline with Tween-80 97 % of control | dose: 12.5 mg/kg/injection, schedule: Q04DX003 (ip), vehicle: saline with Tween-80 95 % of control | dose: 25.0 mg/kg/injection, schedule: Q01DX009 (ip), vehicle: saline with Tween-80 92 % of control | dose: 25.0 mg/kg/injection, schedule: Q04DX003 (ip), vehicle: saline with Tween-80 103 % of control
